Test results from PubChem BioAssay AID588764 (Broad Institute, 2011).
Records with an inconclusive call do not appear. Calls of active or inactive are those of the source. The rule behind the calls is not given here.

Target: Histone acetyltransferase RTT109 (Candida albicans (strain SC5314 / ATCC MYA-2876)) (UniProt Q5AAJ8)
Assay: Rtt109/Vps75 acetyltransferase inhibitor potency, dose response, biochemical, cherry-picked hits, plate reader (AID 588764)
Conditions: Rtt109/Vps75 HAT activity

Histone acetyltransferase RTT109 (Candida albicans (strain SC5314 / ATCC MYA-2876)), sequence (Q5AAJ8 whole entry, looked up): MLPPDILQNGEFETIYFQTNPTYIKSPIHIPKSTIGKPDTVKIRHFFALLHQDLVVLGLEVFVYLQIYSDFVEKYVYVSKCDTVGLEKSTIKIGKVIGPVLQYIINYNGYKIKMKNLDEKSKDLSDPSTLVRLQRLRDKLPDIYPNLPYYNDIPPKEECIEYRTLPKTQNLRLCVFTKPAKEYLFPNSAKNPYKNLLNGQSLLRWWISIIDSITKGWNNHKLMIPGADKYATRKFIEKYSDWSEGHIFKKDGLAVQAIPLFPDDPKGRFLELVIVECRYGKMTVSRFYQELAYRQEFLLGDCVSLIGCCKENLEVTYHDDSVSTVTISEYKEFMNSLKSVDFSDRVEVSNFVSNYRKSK

**Q.** `CC[C@@H](C)[C@H](NC(=O)OC(C)(C)C)c1nnc(S(=O)(=O)Cc2cc(C)ccc2C)o1` was tested. Which AC50 did it give?
**A.** 12.6 µM

**Q.** `Cc1ccc(S(=O)(=O)CCC(=O)c2cccc([N+](=O)[O-])c2)cc1` was tested. Which AC50 did it give?
**A.** 8.29 µM

**Q.** How did the AC50 turn out when `Oc1cc2c(cc1O)C1c3ccc(O)c(O)c3OCC1(O)C2` (centres undefined) was run?
**A.** 6.08 µM

**Q.** Which AC50 does the source give for `CCN(CC)C(=S)SSC(=S)N(CC)CC` here?
**A.** 3.26 µM

Same assay, conditions: Rtt109/Vps75 HAT activity, at 19.5 µM (top of the series)

**Q.** `O=C(O)C(Cc1ccccc1)N1C(=O)/C(=C/c2cccs2)SC1=S` (centres undefined) was tested. Which “activity change, negative = inhibition” value did it give?
**A.** inactive

**Q.** Which “activity change, negative = inhibition” value does the source give for `CCCC[n+]1c(C)sc2cc(OC)ccc21` here?
**A.** inactive

**Q.** How did the “activity change, negative = inhibition” value turn out when `COCCNC(=O)C(c1ccc(O)cc1)N(Cc1ccccc1)C(=O)CCC(=O)Nc1ccccn1` (centres undefined) was run?
**A.** inactive

**Q.** For `CSc1c(SCc2ccccc2)cnn(-c2ccccc2)c1=O`, which “activity change, negative = inhibition” value is on record?
**A.** inactive

**Q.** Which “activity change, negative = inhibition” value does the source give for `Cc1ccc2sc(C)[n+](CCO)c2c1` here?
**A.** inactive

**Q.** With `CC(C(=O)NC1CCS(=O)(=O)C1)N1C(=O)/C(=C/c2ccc(Cl)cc2)SC1=S` (centres undefined) as the compound, how does the “activity change, negative = inhibition” value read?
**A.** inactive

**Q.** For `COc1cc(OC)c(NC(=O)CN(C)S(=O)(=O)c2ccc(-c3ccc(=O)[nH]n3)s2)cc1Cl`, which “activity change, negative = inhibition” value is on record?
**A.** inactive

**Q.** For `CCOC(=O)c1c(NC(=O)C[n+]2ccc(Cc3ccccc3)cc2)sc(C)c1C`, which “activity change, negative = inhibition” value is on record?
**A.** inactive

**Q.** For `CCN1/C(=C/c2ccc3cc(C)cc(C)c3[n+]2CC)Sc2cc(C)ccc21`, which “activity change, negative = inhibition” value is on record?
**A.** inactive

**Q.** With `CC(=O)Nc1nc(-c2ccccc2)c(-c2ccccc2)o1` as the compound, how does the “activity change, negative = inhibition” value read?
**A.** inactive

**Q.** With `COc1ccc(CCNC(=O)CN2C(=O)NC3(CCCCC3C)C2=O)cc1` (centres undefined) as the compound, how does the “activity change, negative = inhibition” value read?
**A.** inactive

**Q.** With `CCCC(CCC)C(=O)OC[N+](C)(C)CCOC(=O)C(O)(c1ccccc1)C1CCCC1` (centres undefined) as the compound, how does the “activity change, negative = inhibition” value read?
**A.** inactive

**Q.** How did the “activity change, negative = inhibition” value turn out when `COc1ccc(S(=O)(=O)N(C)C)cc1NC(=O)Cc1ccc(S(=O)(=O)N2CCOCC2)s1` was run?
**A.** inactive

**Q.** `CCCCc1ccc(-n2c(Cc3cccs3)n[nH]c2=S)cc1` was tested. Which “activity change, negative = inhibition” value did it give?
**A.** inactive

**Q.** For `O=C(C/C=N/OCc1ccc(Cl)cc1Cl)c1ccccc1`, which “activity change, negative = inhibition” value is on record?
**A.** inactive

**Q.** With `CN(c1ccc(C(=O)Nc2ccc3c(c2)OCO3)cc1)S(C)(=O)=O` as the compound, how does the “activity change, negative = inhibition” value read?
**A.** inactive

**Q.** For `N=C1c2ccccc2CN1NC(=O)c1ccccc1`, which “activity change, negative = inhibition” value is on record?
**A.** inactive

**Q.** How did the “activity change, negative = inhibition” value turn out when `CCCn1cc(S(=O)(=O)CC(=O)NC2CCCCC2)c2ccccc21` was run?
**A.** inactive

**Q.** With `CC(C)C[C@@H]1CN=C(N)N1C[C@@H]1CCCN1C[C@H](C)N1C[C@@H](Cc2ccccc2)N(CCc2ccc(Cl)c(Cl)c2)C1=N` as the compound, how does the “activity change, negative = inhibition” value read?
**A.** inactive

**Q.** With `COc1cccc(-c2nn(C)c3sc(C(=O)N4CCN(c5ccccn5)CC4)cc23)c1` as the compound, how does the “activity change, negative = inhibition” value read?
**A.** inactive
